From paper PMC10810651, “Discovery of novel and potent CDK8 inhibitors for the treatment of acute myeloid leukaemia” (Journal of Enzyme Inhibition and Medicinal Chemistry, 2024)
Read-outs that look alike come from different tables or passages of the source.

Experiments:
molm-13 = assay: Antiproliferative CCK-8 assay, molm-13; assay type: cell-based; details: Homo sapiens; molm-13, CCK-8 assay, means ± SD; read-out: GC50 (the source's name)
Description: (§1) Compounds12, 13 and 30 were selected for further cell activity assessments based on the enzymatic activity assessment results. molm-13 and MV4-11(acute myeloid lineage leukaemia cells), MGC-803 (gastric cancer cell), MDA-MB-231(breast cancer cell), A375 (melanoma cell), A549 (lung cancer cell), HCT-116, SW-480 and HT-29 (colorectal cancer cells) were selected to evaluate antitumor activity in vitro, GES-1 (gastric mucosal epithelial cell) was selected to evaluate toxicity in vitro.
(§2) CO2 atmosphere incubator for 24 h. Then, medium with compound at the concentrations of 100, 20, 4, 0.8, 0.016 μM was added into each well for another 48 h and incubated with CCK-8 (10 μL) for 2 h at 37 °C. The absorbance value at 450 nm was measured by the microplate reader (PerkinElmer Envision). […]

CYP3A4/5 = assay: CYP inhibition activity, 3A4/5 (M); assay type: in vitro ADME; details: human; CYP 3A4/5 (M)
Description: Table 7. CYP inhibition activity. | column: IC50 (μM) / 3A4/5 (M)

STAT1 S727 = assay: Phosphorylation of STAT1 S727, western blot; assay type: cell-based; details: HCT-116 cells, 1, 2, 4 μM, 12 h
Description: It has been reported that CDK8 could specifically target the transactivation domain of STAT1 at Ser727 phosphorylation. HCT-116 cells were treated with compounds 12 with different concentrations of 1 μM, 2 μM, 4 μM separately to verify compound 12 could inhibit the phosphorylation of STAT1 Ser727. […] It’s reported that CDK8 was also involved in S726 phosphorylation of STAT5 in AML cells.
Figure 6. Compound 12 inhibited phosphorylation of STAT1 S727 and STAT5 S726. (A) Compound 12 suppressed the phosphorylation of STAT1 S727 in a dose-dependent manner. HCT-116 cells were treated with compound for 12 h. (B) Compound 12 suppressed the phosphorylation of STAT5 S726 in a dose dependent manner. HL-60 cells were treated with or without compound for 12 h. The samples were analysed by Western blot.
1.7 The effect of compound on phosphorylation of STAT1 S727
HCT-116 cells were seeded into 60 mm cultural dishes at a density of 1.5×10^6 cells per dishes. […] Levels of total STAT1, phosphorylated STAT1 S727, Y701 and GAPDH were analyzed. […]
Levels of total STAT5, phosphorylated STAT5 S726 and GAPDH were analyzed.
The results were expressed as the means ± SEMs (SPSS software), and the differences between groups were evaluated using Turkey’s method (GraphPad Software). […]

[1] = Caco-2 permeability determination; assay type: in vitro ADME; details: human
Caco-2 = Caco-2 permeability determination; assay type: in vitro ADME; details: Caco-2
CDK8 = CDK8 (Homo sapiens, UniProt P49336); assay: Biotin-pulldown assay; assay type: binding; design: endogenous in cells; host or cells: HCT-116; details: HCT-116 or CDK8-transfected HEK293T cells; 2 μM biotinylated compound; 1, 2, 4 μM
Description: In previous study, a biotinylated compound with favourable CDK8 inhibition activity was designed and synthesized. Here, the pulldown assay was performed to determine compound 12 could bind CDK8. HCT-116 cells or HEK293T cells transfected with CDK8 plasmid labelled were treated with 2 μM biotinylated compound and compounds 12 with different concentrations of 1 μM, 2 μM, 4 μM separately.
CO2 atmosphere incubator for 24 h. Then, medium with compound at the concentrations of 100, 20, 4, 0.8, 0.016 μM was added into each well for another 48 h and incubated with CCK-8 (10 μL) for 2 h at 37 °C. The absorbance value at 450 nm was measured by the microplate reader (PerkinElmer Envision).
The kinase inhibition was detected by ADP-Glo™ Kinase Assay (Promega) using a black 384-well plate. The active CDK8 kinase was diluted in mixture (5 ng enzyme, 0.5 μg substrate, 50 μM DTT, 1 μL reaction buffer and added ddH2O to 3 μL each well) and the final ATP concentrations of was 50 μM. […] The data was collected by the microplate reader. […]
were broken by ultr asonic treatment and centrifuged at 12000 rpm for 20 min. The supernatant was analyzed by western blot. […]
After co-treated with 2 μM biotinylated compound and compound 12 for 12 h, HCT-116 cells were lysed with NP-40 containing PMSF and centrifuged at 14000 r for 30 min at 4 °C. […] The samples were analyzed by western blot.

MV4-11 = assay: Antiproliferative CCK-8 assay, MV4-11; assay type: cell-based; details: Homo sapiens; MV4-11, CCK-8 assay, means ± SD; read-out: GC50 (the source's name)
Description: as §1, §2

CYP 2C9 = CYP 2C9 (Homo sapiens, UniProt P11712); assay: CYP inhibition activity, 2C9; assay type: in vitro ADME
Description: Table 7. CYP inhibition activity. | column: IC50 (μM) / 2C9

A549 = assay: Antiproliferative CCK-8 assay, A549; assay type: cell-based; details: Homo sapiens; A549, CCK-8 assay, means ± SD; read-out: GC50 (the source's name)
Description: as §1, §2

CYP 2C9, sequence (P11712 whole entry): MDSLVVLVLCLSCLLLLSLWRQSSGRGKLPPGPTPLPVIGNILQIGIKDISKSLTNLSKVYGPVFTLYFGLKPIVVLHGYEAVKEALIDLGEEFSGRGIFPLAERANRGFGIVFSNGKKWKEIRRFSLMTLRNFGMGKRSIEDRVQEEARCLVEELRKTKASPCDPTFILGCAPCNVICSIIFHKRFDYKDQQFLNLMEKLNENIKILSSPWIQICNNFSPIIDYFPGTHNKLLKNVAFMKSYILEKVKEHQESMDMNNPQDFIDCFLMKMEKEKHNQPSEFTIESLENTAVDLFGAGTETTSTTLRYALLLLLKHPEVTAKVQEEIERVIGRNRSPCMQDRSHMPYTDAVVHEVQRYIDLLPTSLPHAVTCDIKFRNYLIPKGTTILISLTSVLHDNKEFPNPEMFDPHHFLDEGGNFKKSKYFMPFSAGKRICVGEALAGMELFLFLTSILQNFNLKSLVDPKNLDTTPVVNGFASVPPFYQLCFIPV
CDK8, sequence (P49336 whole entry): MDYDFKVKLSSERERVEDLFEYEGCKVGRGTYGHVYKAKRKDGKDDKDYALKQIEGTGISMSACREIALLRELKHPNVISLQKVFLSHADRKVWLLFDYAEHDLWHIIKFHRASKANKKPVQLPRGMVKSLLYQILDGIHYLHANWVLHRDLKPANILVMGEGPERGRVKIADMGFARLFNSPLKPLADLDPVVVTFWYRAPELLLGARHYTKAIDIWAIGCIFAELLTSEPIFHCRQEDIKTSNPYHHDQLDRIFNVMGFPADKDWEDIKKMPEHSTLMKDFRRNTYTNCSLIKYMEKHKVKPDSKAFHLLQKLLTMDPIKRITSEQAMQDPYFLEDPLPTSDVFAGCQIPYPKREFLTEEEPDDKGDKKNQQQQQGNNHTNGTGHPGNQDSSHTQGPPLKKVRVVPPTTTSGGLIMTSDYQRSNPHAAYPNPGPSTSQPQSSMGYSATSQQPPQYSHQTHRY

With NC(=O)c1cccc(-c2cnc3[nH]cc(-c4ccoc4)c3c2)c1 [Compound 12, 3-(3-(furan-3-yl)-1H-pyrrolo[2,3-b]pyridin-5-yl)benzamide] the IC50 (molm-13) was 0.02 ± 0.01 µM, the IC50 (CYP3A4/5) was greater than 5e-05 M and the “Phosphorylation of STAT1 S727” value (STAT1 S727) was “significantly inhibited in a dose-dependent manner”. It also gave an efflux ratio ([1]; Caco-2) of 1.3, a recovery ([1]; Caco-2, Caco-2, A→B, read-out: Recovery A→B) of 107% and a recovery ([1]; Caco-2, Caco-2, B→A, read-out: Recovery B→A) of 108%. The Papp A→B ([1]; Caco-2, A→B) was 27 ×10⁻⁶ cm/s, the Papp B→A ([1]; Caco-2, B→A) was 35.1 ×10⁻⁶ cm/s and the “Permeability (in words)” value (Caco-2) was “high permeability”. For the same compound, the “Competition with biotinylated compound for binding to CDK8” value (CDK8) was “could inhibit the binding of biotinylated compound to CDK8”, the IC50 (MV4-11) was 0.03 ± 0.01 µM and the IC50 (CYP 2C9) was greater than 50 µM. For the same compound, the IC50 (A549) was 15.5 ± 2.78 µM.
